From patent US4895842A, “Phenylalanine derivative and proteinase inhibitor” (Shosuke Okamoto, priority 1985, dated 1990)
Counter-ions that a name gives are not always drawn. Like-named read-outs stand apart in the source and are kept apart here.

What was measured:
human plasma kallikrein = human plasma kallikrein (Homo sapiens, UniProt P03952); assay: Anti-plasma kallikrein activity: inhibition of S-2302 decomposition; format: biochemical; details: S-2302 substrate, read-out: Plasma Kallikrein S-2302 (I50)
human plasma kallikrein, sequence (P03952 391-638 limits assumed): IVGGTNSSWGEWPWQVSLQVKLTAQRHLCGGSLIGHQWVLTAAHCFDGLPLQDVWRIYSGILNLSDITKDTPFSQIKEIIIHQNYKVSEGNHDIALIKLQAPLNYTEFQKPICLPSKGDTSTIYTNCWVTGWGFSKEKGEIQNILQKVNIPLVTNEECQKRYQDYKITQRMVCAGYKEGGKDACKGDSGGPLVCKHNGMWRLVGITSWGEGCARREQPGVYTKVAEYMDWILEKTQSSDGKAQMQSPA
human plasma kallikrein, sequence (P03952 20-390 partner limits assumed): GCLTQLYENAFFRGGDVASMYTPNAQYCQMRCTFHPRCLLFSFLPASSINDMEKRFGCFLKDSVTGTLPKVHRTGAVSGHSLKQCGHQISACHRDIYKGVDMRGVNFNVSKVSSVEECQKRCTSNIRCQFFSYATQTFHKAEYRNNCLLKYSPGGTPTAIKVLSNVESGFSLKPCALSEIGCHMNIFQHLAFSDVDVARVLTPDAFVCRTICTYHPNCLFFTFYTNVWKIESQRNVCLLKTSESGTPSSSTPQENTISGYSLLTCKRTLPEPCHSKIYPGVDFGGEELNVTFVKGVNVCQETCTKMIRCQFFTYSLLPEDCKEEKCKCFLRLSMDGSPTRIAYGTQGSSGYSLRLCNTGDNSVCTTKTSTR
Description: Determination of inhibition activity for S-2302 decomposition
An inhibitor sample is dissolved in a 0.05M Tris-hydrochloric acid buffer solution (pH=7.8) to make the total volume to 400 μl. To this solution, 50 μl of a 2 mM S-2302 solution is added and the mixture is incubated at a temperature of 37° C. for 5 minutes in a constant temperature bath. Then, 50 μl of a 0.12 unit/ml human plasma kallikrein is added and the mixture is incubated at a temperature of 37° C. for 5 minutes. Thereafter, 50 μl of 50% acetic acid is added to terminate the reaction. The absorbance of the p-nitroaniline formed in the reaction mixture is measured at 405 nm. Thus, the concentration I50 (μmol) of the inhibitor sample, at which the absorbance is one half (i.e., 1/2) of that obtained in the absence of the inhibitor sample, is determined.

human urokinase = human urokinase (Homo sapiens, UniProt P00749); assay: biochemical; details: S-2444 substrate, read-out: Urokinase S-2444 (I50)
Description: Determination of inhibition activity for S-2444 decomposition
An inhibitor sample is dissolved in a 0.05M Tris-hydrochloric acid buffer solution (pH=8.8) to make the total volume to 400 μl. To this solution, 50 μl of a 1 mM S-2444 solution is added and the mixture is incubated at a temperature of 37° C. for 5 minutes in a constant temperature bath. Then, 50 μl of a 500 unit/ml human urokinase is added and the mixture is incubated at a temperature of 37° C. for 5 minutes. Thereafter, 50 μl of 50% acetic acid is added to terminate the reaction. The absorbance of the p-nitroaniline formed in the reaction mixture is measured at 405 nm. Thus, the concentration I50 (μmol) of the inhibitor sample, at which the absorbance is one half (i.e., 1/2) of that obtained in the absence of the inhibitor sample, is determined.

human plasmin [1] = target: T1, human plasmin (Homo sapiens, UniProt P00747); assay: biochemical
T1 sequence (P00747 581-810 limits assumed): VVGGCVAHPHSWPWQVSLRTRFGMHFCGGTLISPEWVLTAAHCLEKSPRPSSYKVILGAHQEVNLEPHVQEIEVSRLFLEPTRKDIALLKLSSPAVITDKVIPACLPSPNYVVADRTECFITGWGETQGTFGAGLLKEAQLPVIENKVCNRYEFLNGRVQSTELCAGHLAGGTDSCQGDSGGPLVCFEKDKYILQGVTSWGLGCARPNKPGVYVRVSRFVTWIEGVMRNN
T1 sequence (P00747 97-580 partner limits assumed): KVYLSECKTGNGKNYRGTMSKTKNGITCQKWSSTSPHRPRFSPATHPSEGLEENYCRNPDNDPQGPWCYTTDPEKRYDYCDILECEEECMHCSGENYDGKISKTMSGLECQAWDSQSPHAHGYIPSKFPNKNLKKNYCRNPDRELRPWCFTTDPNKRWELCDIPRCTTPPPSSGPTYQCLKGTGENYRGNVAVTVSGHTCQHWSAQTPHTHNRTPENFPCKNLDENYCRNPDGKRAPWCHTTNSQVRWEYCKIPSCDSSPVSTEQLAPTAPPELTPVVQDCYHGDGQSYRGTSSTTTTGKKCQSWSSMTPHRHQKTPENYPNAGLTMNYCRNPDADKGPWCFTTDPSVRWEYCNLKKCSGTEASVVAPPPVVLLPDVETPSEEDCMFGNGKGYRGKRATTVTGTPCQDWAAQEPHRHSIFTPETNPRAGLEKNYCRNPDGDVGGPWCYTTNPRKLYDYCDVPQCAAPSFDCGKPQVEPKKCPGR
Description: An inhibitor sample is dissolved in a 0.05M Tris-hydrochloric acid buffer solution (pH=7.4) to make the total volume of 400 μl. […] Then, 50 μl of a 0.2 casein unit/ml human plasmin is added and the mixture is incubated at a temperature of 37° C. for 4 minutes. Thereafter, the reaction is stopped by adding 50 μl of 50% acetic acid.
Thus, the concentration I50 (μmol) of the inhibitor sample, at which the absorbance is one half (i.e., 1/2) of that obtained in the absence of the inhibitor, is determined.

human plasmin [2] = target: T1, human plasmin; assay: Antiplasmin activity: inhibition of fibrin decomposition; format: biochemical
Description: (i) Determination of inhibition activity for fibrin decomposition
An inhibitor sample is dissolved in a 0.18M borate-physiological salt buffer solution (pH=7.4) to make the total volume to 600 μl. To this buffer solution, 200 μl of a 0.2% bovine fibrinogen, 100 μl of a 0.3 casein unit/ml human plasmin solution, and 100 μl of a 50 unit/ml bovine thrombin solution, all dissolved in the above-mentioned buffer, are added at a temperature of 37° C. in a constant temperature bath. Then, the dissolution time of the fibrin mass formed above is determined.

bovine thrombin [3] = target: T2, bovine thrombin (Bos taurus, UniProt P00735); assay: Antithrombin activity: inhibition of S-2238 decomposition; format: biochemical; details: S-2238 substrate, read-out: Thrombin S-2238 (I50)
Description: (ii) Determination of inhibition activity for S-2238 decomposition
An inhibitor sample is dissolved in a 0.05M Tris-hydrochloric acid buffer solution (pH=8.3) to make a total volume of 400 μl. To this solution, 50 μl of a 0.2 mM S-2238 solution is added and the mixture is incubated at a temperature of 37° C. for 5 minutes in a constant temperature bath. Then, 50 μl of a 0.2 unit/ml bovine thrombin solution is added thereto and the absorbance, at 405 nm, of the p-nitroaniline formed per minute is determined at a temperature of 37° C. by using the so-called initial velocity method. Thus, the concentration I50 (μmol) of the inhibitor sample at which the absorbance is one half (i.e., 1/2) of that obtained in the absence of the inhibitor sample, is determined.

bovine thrombin [4] = target: T2, bovine thrombin; assay: Antithrombin activity: inhibition of fibrin formation from fibrinogen; format: biochemical
Description: (i) Determination of inhibition activity against fibrin formation
An inhibitor sample is dissolved in a 0.18M borate-physiological salt buffer solution (pH=7.4) to make the total volume to 500 μl. To this solution, 400 μl of a 0.2% bovine fibrinogen solution and 100 μl of a 4 unit/ml bovine thrombin solution are added at a temperature of 37° C. in a constant temperature bath. Thus, a coagulation time is determined. The inhibitor concentration I50 (μmol), at which the coagulation time obtained in the absence of the inhibitor is extended twice, is determined.

bovine trypsin = target: T3, bovine trypsin (Bos taurus, UniProt P00760); assay: Antitrypsin activity: inhibition of S-2238 decomposition; format: biochemical; details: Table 2; S-2238 substrate, pH 8.1, 37° C.; read-out: Trypsin S-2238 (I50)
T3 sequence (P00760 24-246): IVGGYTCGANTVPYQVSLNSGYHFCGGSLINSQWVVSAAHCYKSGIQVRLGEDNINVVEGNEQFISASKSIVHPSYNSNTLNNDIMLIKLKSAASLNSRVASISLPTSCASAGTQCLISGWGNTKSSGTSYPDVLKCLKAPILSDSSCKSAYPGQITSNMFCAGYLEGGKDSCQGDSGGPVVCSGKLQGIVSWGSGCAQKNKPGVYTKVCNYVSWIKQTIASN
Description: Determination of inhibition activity against S-2238 decomposition
An inhibitor sample is dissolved in a 0.05M Tris-imidazole buffer solution (pH=8.1) and 125 μl of a 1 mM S-2238 solution is added to make the total volume to 1.20 ml. The mixture is incubated at a temperature of 37° C. for 5 minutes in a constant temperature bath. To this mixture, 0.05 ml of bovine trypsin is added and the absorbance, at 405 nm, of the p-nitroaniline formed per minute is determined at a temperature of 37° C. by using the so-called initial velocity method. Thus, the concentration I50 (μmol) of the inhibitor sample, at which the absorbance is one half (i.e., 1/2) of that obtained in the absence of the inhibitor sample, is determined.

[5] = Table 2, concentration at which fibrin dissolution time is extended twice, pH 7.4, 37° C., read-out: Plasmin Fibrin (I50)

SMILES | IC50 (human plasma kallikrein; Table 2, pH 7.8, 37° C.) [nM] | IC50 (human urokinase; Table 2, pH 8.8, 37° C.) [nM] | IC50 (human plasmin [1]) [nM] | IC50 (human plasmin [2]) [nM] | IC50 (bovine thrombin [3]; Table 2, pH 8.3, 37° C.) [nM] | IC50 (bovine thrombin [4]) [nM] | IC50 (bovine trypsin) [nM] | IC50 (human plasmin [1]; read-out: Plasmin S-2251 (I50)) [nM] | IC50 (human plasmin [2]; [5]) [nM] | IC50 (human plasma kallikrein; Table 4, comparative compounds of Table 3, pH 7.8) [nM] | IC50 (human urokinase; Table 4, comparative compounds of Table 3, pH 8.8) [nM] | IC50 (human plasmin [1]; Table 4, comparative compounds of Table 3, S-2251 substrate, pH 7.4, 37° C., read-out: Plasmin S-2251 (I50)) [nM] | IC50 (human plasmin [2]; Table 4, comparative compounds of Table 3, fibrin dissolution time extended twice, read-out: Plasmin Fibrin (I50)) [nM] | IC50 (bovine thrombin [3]; Table 4, comparative compounds of Table 3, pH 8.3) [nM] | IC50 (bovine thrombin [4]; Table 4, comparative compounds of Table 3, coagulation time extended twice, read-out: Thrombin Fibrinogen (I50)) [nM]
NC[C@H]1CC[C@H](C(=O)NC(Cc2ccc([N+](=O)[O-])cc2)C(=O)Nc2ccc(C(=O)c3ccccc3)cc2)CC1 (mixture of isomers) [Compound No. 31, N-(trans-4-aminomethylcyclohexylcarbonyl)-4-nitro-D,L-phenylalanine 4-benzoylanilide hydrochloride] | 6000 | 3300 | 14000 | 3300 | > 100000 | > 100000 | – | – | – | – | – | – | – | – | –
CC(=O)c1ccc(NC(=O)[C@H](Cc2ccc(OCc3ccc(Cl)cc3)cc2)NC(=O)[C@H]2CC[C@H](CN)CC2)cc1 [Compound No. 5, N-(trans-4-aminomethylcyclohexylcarbonyl)-4-(4-chlorobenzyloxy)-L-phenylalanine 4-acetylanilide] | 460 | 25000 | – | – | – | – | 840 | 900 | 390 | – | – | – | – | – | –
CC(=O)c1ccc(NC(=O)[C@H](Cc2ccc(OCc3ccc(F)cc3)cc2)NC(=O)[C@H]2CC[C@H](CN)CC2)cc1 [Compound No. 12] | 840 | 11000 | – | – | – | – | – | 790 | 410 | – | – | – | – | – | –
NC[C@H]1CC[C@H](C(=O)N[C@@H](Cc2ccc(OCc3ccccc3)cc2)C(=O)Nc2cccnc2)CC1 [Compound No. 16, N-(trans-4-aminomethylcyclohexylcarbonyl)-4-benzyloxy-L-phenylalanine 3-pyridylamide dihydrochloride] | – | – | – | – | > 400000 | > 500000 | – | – | – | – | – | – | – | – | –
NCc1ccc(C(=O)N[C@@H](Cc2ccc(OCc3ccccc3)cc2)C(=O)NC2CCCCC2)cc1 [Compound No. 114, N-(4-aminomethylbenzoyl)-4-benzyloxy-L-phenylalanine cyclohexylamide hydrochloride] | 40000 | > 100000 | – | – | – | – | 9500 | 3200 | 1400 | – | – | – | – | – | –
CC(=O)NC(Cc1ccc(OCc2ccccc2)cc1)C(=O)N(C)C (stereo not drawn) [Table 3 Compound No. 5, reference compound] | – | – | – | – | – | – | – | – | – | > 200000 | > 200000 | > 200000 | > 200000 | > 200000 | > 200000
CC(=O)c1ccc(NC(=O)[C@H](Cc2ccc(OC(C)C)cc2)NC(=O)[C@H]2CC[C@H](CN)CC2)cc1 [compound 14] | 2100 | 80000 | – | – | > 400000 | > 500000 | – | 168000 | 4400 | – | – | – | – | – | –
CC(=O)c1ccc(NC(=O)[C@H](Cc2ccc(OCc3ccc(Br)cc3)cc2)NC(=O)[C@H]2CC[C@H](CN)CC2)cc1 [compound 17] | 560 | 23000 | – | – | – | – | – | 1500 | 280 | – | – | – | – | – | –
NC[C@H]1CC[C@H](C(=O)N[C@@H](Cc2ccc(OCc3ccccc3)cc2)C(=O)Nc2ccc(C(=O)c3ccccc3)cc2)CC1 [compound 19] | 1200 | 19000 | – | – | – | – | – | 1300 | 280 | – | – | – | – | – | –
CC(=O)c1ccc(NC(=O)[C@H](Cc2ccc(OCc3c(Cl)cccc3Cl)cc2)NC(=O)[C@H]2CC[C@H](CN)CC2)cc1 [compound 20] | 160 | 120000 | – | – | > 50000 | > 25000 | – | 1400 | 310 | – | – | – | – | – | –

Other lines, results leading:

IC50 (human plasma kallikrein; Table 2, pH 7.8, 37° C.) [nM] | IC50 (human urokinase; Table 2, pH 8.8, 37° C.) [nM] | IC50 (human plasmin [1]) [nM] | IC50 (human plasmin [2]) [nM] | IC50 (bovine thrombin [3]; Table 2, pH 8.3, 37° C.) [nM] | IC50 (bovine thrombin [4]) [nM] | IC50 (bovine trypsin) [nM] | IC50 (human plasmin [1]; read-out: Plasmin S-2251 (I50)) [nM] | IC50 (human plasmin [2]; [5]) [nM] | IC50 (human plasma kallikrein; Table 4, comparative compounds of Table 3, pH 7.8) [nM] | IC50 (human urokinase; Table 4, comparative compounds of Table 3, pH 8.8) [nM] | IC50 (human plasmin [1]; Table 4, comparative compounds of Table 3, S-2251 substrate, pH 7.4, 37° C., read-out: Plasmin S-2251 (I50)) [nM] | IC50 (human plasmin [2]; Table 4, comparative compounds of Table 3, fibrin dissolution time extended twice, read-out: Plasmin Fibrin (I50)) [nM] | IC50 (bovine thrombin [3]; Table 4, comparative compounds of Table 3, pH 8.3) [nM] | IC50 (bovine thrombin [4]; Table 4, comparative compounds of Table 3, coagulation time extended twice, read-out: Thrombin Fibrinogen (I50)) [nM] | SMILES
2100 | 560000 | – | – | > 100000 | > 100000 | – | 6900 | 1100 | – | – | – | – | – | – | Cc1ccc(NC(=O)[C@H](Cc2ccc(OCc3ccccc3)cc2)NC(=O)[C@H]2CC[C@H](CN)CC2)cc1 [compound 26]
460 | 70000 | – | – | – | – | 840 | 580 | 91 | – | – | – | – | – | – | CC(=O)c1ccc(NC(=O)[C@H](Cc2ccc(OCc3ccc(Cl)c(Cl)c3)cc2)NC(=O)[C@H]2CC[C@H](CN)CC2)cc1 [compound 45]
24000 | > 100000 | – | – | – | > 50000 | 10000 | 5600 | 1400 | – | – | – | – | – | – | Cc1ccc(NC(=O)[C@H](Cc2ccc(OCc3ccccc3)cc2)NC(=O)c2ccc(CN)cc2)cc1 [compound 63]
22000 | > 200000 | – | – | – | > 50000 | 5000 | 2900 | 1000 | – | – | – | – | – | – | Cc1ccc(NC(=O)[C@H](Cc2ccc(OCc3ccccc3)cc2)NC(=O)c2ccc(CN)cc2)cc1C [compound 65]
1200 | 40000 | – | – | – | > 20000 | 440 | 1100 | 140 | – | – | – | – | – | – | NC[C@H]1CC[C@H](C(=O)N[C@@H](Cc2ccc(OCc3cccc(Cl)c3)cc2)C(=O)Nc2ccc(C(=O)c3ccccc3)cc2)CC1 [compound 67]
18000 | > 100000 | – | – | – | – | 1200 | 780 | 120 | – | – | – | – | – | – | CC1CCC(NC(=O)C(Cc2ccc(OCc3cccc(Cl)c3)cc2)NC(=O)c2ccc(CN)cc2)CC1C (stereo not drawn) [compound 103]
19000 | > 150000 | – | – | – | > 50000 | 3000 | 1400 | 540 | – | – | – | – | – | – | CC1CCC(NC(=O)C(Cc2ccc(OCc3ccc(F)cc3)cc2)NC(=O)c2ccc(CN)cc2)CC1C (stereo not drawn) [compound 106]
> 25000 | > 20000 | – | – | – | > 50000 | 18000 | 8300 | 1700 | – | – | – | – | – | – | NCc1ccc(C(=O)NC(Cc2ccc(OCc3ccccc3)cc2)C(=O)NCc2ccc(F)cc2)cc1 (stereo not drawn) [compound 113]
380 | 47000 | – | – | – | – | 800 | 490 | 130 | – | – | – | – | – | – | CC(=O)c1ccc(NC(=O)[C@H](Cc2ccc(OCc3cc(Cl)ccc3Cl)cc2)NC(=O)[C@H]2CC[C@H](CN)CC2)cc1 [compound 125]
3500 | 6300 | – | – | – | > 200000 | 450 | 1500 | 830 | – | – | – | – | – | – | N=C(N)c1ccc(NC(=O)[C@H](Cc2ccc(OCc3ccccc3)cc2)NC(=O)[C@H]2CC[C@H](CN)CC2)cc1 [compound 126]
370 | 43000 | – | – | – | > 50000 | 950 | 230 | 51 | – | – | – | – | – | – | CC(=O)c1ccc(NC(=O)[C@H](Cc2ccc(OC(=O)OCc3ccccc3Br)cc2)NC(=O)[C@H]2CC[C@H](CN)CC2)cc1 [compound 144]
